From patent US20230117470A1, “SUBSTITUTED PYRAZOLE COMPOUNDS AS TOLL RECEPTOR INHIBITORS” (BRISTOL-MYERS SQUIBB COMPANY, priority 2019, published 2023)

How the values were obtained:
Format in all cases: cell-based
human TLR8 = target: T1, human TLR8 (Homo sapiens, UniProt Q9NR97); assay: TLR8 inhibition reporter assay (HEK-Blue cells, SEAP reporter, R848 stimulation); settings: HEK-Blue cells overexpressing human TLR8, SEAP reporter, R848 15.9 μM
T1 construct: host or cells: HEK-Blue cells
T1 sequence (Q9NR97 27-1041): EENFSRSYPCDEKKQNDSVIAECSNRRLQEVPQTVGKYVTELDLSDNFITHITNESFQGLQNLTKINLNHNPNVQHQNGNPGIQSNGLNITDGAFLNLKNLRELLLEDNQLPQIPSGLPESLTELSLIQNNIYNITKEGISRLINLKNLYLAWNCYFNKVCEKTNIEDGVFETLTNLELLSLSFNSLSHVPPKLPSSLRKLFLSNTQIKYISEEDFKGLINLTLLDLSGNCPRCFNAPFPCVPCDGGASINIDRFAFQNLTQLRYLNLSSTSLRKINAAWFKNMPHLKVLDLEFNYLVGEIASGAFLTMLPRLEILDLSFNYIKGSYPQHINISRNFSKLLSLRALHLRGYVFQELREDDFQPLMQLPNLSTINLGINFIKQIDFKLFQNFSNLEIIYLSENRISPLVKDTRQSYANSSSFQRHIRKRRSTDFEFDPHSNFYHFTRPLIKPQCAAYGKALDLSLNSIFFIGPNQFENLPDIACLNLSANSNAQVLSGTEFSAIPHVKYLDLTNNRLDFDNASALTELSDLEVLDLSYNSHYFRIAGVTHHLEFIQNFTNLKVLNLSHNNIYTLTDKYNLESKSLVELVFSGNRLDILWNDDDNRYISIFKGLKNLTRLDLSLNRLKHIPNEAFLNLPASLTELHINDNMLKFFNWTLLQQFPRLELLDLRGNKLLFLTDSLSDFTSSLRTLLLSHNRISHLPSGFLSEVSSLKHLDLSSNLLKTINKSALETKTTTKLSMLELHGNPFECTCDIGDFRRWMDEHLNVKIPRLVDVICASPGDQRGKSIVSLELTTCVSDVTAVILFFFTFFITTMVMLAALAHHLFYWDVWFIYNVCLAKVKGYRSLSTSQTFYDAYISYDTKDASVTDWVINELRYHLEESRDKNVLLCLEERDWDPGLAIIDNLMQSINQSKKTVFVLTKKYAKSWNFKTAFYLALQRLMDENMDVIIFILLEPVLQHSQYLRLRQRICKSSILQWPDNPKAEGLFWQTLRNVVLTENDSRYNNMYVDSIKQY
Procedure, shortened: (§1)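 HEK-Blue cells overexpressing human TLR7, TLR8 or TLR9, with an NF-κB/AP-1-driven SEAP reporter, pre-treated 30 min at room temperature with compound (0.05 nM-50 μM final). Stimulated with 7.5 μM gardiquimod (TLR7), 15.9 μM R848 (TLR8) or 5 nM ODN2006 (TLR9), then 22 h at 37° C. SEAP read with HEK-Blue Detection; % inhibition set against agonist+DMSO and known-inhibitor wells.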

human TLR7 = target: T2, human TLR7 (Homo sapiens, UniProt Q9NYK1); assay: TLR7 inhibition reporter assay (HEK-Blue cells, SEAP reporter, gardiquimod stimulation); settings: HEK-Blue cells overexpressing human TLR7, SEAP reporter, gardiquimod 7.5 μM
T2 construct: host or cells: HEK-Blue cells
T2 sequence (Q9NYK1 27-1049): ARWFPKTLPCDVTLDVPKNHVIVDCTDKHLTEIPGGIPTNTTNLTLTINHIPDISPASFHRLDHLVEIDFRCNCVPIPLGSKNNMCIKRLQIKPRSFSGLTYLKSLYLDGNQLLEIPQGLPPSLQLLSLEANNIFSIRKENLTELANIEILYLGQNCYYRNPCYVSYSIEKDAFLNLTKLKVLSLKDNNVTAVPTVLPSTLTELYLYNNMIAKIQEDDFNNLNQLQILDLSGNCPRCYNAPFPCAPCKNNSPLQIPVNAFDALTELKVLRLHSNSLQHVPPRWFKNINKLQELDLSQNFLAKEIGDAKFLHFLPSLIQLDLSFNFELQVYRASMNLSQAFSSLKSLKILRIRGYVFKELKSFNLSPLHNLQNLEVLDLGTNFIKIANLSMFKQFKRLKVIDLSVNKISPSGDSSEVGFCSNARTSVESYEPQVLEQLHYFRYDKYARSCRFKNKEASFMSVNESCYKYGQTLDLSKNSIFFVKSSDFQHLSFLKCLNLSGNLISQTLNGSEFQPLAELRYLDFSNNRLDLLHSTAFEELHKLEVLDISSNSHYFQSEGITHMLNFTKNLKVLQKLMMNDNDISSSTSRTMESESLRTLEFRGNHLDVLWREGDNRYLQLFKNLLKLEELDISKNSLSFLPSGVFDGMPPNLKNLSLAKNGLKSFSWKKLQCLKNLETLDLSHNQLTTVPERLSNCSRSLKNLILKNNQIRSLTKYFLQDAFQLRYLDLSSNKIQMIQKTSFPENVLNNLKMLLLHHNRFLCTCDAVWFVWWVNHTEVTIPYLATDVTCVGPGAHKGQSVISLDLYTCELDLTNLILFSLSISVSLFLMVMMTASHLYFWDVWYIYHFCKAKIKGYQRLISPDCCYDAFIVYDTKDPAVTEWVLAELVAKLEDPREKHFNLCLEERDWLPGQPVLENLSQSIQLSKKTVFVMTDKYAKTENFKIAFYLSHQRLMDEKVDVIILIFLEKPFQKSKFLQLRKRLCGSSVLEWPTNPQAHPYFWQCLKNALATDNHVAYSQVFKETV
Procedure, shortened: as §1

human TLR9 = target: T3, human TLR9 (Homo sapiens, UniProt Q9NR96); assay: TLR9 inhibition reporter assay (HEK-Blue cells, SEAP reporter, ODN2006 stimulation); settings: HEK-Blue cells overexpressing human TLR9, SEAP reporter, ODN2006 5 nM
T3 construct: host or cells: HEK-Blue cells
T3 sequence (Q9NR96 26-1032): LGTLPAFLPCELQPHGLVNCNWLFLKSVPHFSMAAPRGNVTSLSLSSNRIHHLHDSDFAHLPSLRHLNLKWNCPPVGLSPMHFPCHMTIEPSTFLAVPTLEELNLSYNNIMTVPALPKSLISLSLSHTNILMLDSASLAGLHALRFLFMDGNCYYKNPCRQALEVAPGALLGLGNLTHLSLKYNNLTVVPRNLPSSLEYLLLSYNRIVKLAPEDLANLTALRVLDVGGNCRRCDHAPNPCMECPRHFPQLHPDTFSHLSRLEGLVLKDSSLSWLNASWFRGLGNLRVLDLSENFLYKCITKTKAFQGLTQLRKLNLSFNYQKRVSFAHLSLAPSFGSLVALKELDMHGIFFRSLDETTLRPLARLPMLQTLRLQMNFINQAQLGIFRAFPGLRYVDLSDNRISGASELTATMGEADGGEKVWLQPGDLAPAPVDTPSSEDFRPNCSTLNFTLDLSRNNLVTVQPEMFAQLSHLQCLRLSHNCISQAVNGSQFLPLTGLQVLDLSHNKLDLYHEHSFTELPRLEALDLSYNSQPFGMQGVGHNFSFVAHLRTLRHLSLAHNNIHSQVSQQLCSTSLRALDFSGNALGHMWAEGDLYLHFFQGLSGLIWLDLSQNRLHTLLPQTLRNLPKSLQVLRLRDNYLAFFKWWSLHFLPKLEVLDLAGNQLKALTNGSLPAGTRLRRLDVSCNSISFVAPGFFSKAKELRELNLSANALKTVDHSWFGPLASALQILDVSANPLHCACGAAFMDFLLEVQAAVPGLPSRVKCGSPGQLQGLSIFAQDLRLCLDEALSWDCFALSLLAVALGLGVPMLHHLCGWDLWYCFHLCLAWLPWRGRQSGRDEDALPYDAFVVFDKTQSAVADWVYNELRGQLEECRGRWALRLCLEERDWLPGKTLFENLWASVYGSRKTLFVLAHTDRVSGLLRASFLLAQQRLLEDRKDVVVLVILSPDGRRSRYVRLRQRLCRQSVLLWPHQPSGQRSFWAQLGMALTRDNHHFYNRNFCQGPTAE
Procedure, shortened: as §1

SMILES | IC50 (human TLR8) | IC50 (human TLR7) | IC50 (human TLR9)
COc1cc(-c2[nH]nc(-c3ccc(C4CCN(C5CCOCC5)CC4)cc3)c2C(C)C)cn2ncnc12 [Example 313] | 1.72 nM | 3.71 nM | > 50000 nM
CCC(CC)N1CCC(c2cnc(-c3n[nH]c(-c4cc(OC)c5ncnn5c4)c3C(C)C)cn2)CC1 [Example 386] | 3.56 nM | 10.3 nM | 9560 nM
CCN1CCC(c2cnc(-c3n[nH]c(-c4cc(C)c5ncnn5c4)c3C(C)C)nc2)CC1 [Example 369] | 33 nM | 18 nM | 46900 nM
Cc1cc(-c2[nH]nc(-c3nc4c(s3)CN(C(C)C)CC4)c2C(C)C)cn2ncnc12 [Example 252] | 35.8 nM | 67.9 nM | > 50000 nM
COc1cc(-c2[nH]nc(-c3ccc(C4CCN(C)CC4)cn3)c2C(C)C)cn2ncnc12 [Example 348] | 22.4 nM | 19.1 nM | > 50000 nM
Cc1cc(-c2[nH]nc(-c3cnc(N4CCNCC4)nc3)c2C(C)C)cn2ncnc12 [Example 407] | 279 nM | 28.6 nM | > 50000 nM
Cc1cc(-c2[nH]nc(-c3nc4c(s3)CN(C3CCN(C(C)C)CC3)CC4)c2C(C)C)cn2ncnc12 [Example 254] | 22.7 nM | 26.8 nM | 29200 nM
COc1cc(-c2[nH]nc(-c3ccc(C4CCN(CC(C)(C)O)CC4)cn3)c2C(C)C)cn2ncnc12 [Example 391] | 118 nM | 102 nM | > 50000 nM
Cc1cc(-c2[nH]nc(-c3ccc(C4CN(CC(C)(C)O)C4)cc3)c2C(C)C)cn2ncnc12 [Example 336, 1-(3-(4-(4-isopropyl-5-(8-methyl-[1,2,4]triazolo[1,5-a]pyridin-6-yl)-1H-pyrazol-3-yl)phenyl)azetidin-1-yl)-2-methylpropan-2-ol] | 39.7 nM | 13.5 nM | 38100 nM
Cc1cc(-c2[nH]nc(-c3nc4c(s3)CN(C(=O)C[C@H](C)O)CC4)c2C(C)C)cn2ncnc12 [Example 269] | 2.55 nM | 4.31 nM | 6280 nM
COc1cc(-c2[nH]nc(-c3cnc(C4CCN(CCF)CC4)cn3)c2C(C)C)cn2ncnc12 [Example 398] | 365 nM | 137 nM | > 50000 nM
COc1cc(-c2[nH]nc(C(=O)NC3CCN(CC4CCOCC4)CC3)c2CC(F)(F)F)cn2ncnc12 [Example 197] | 2.08 nM | 5.35 nM | 13100 nM

Results, then the molecule that gave them:

IC50 (human TLR8) | IC50 (human TLR7) | IC50 (human TLR9) | SMILES
98.5 nM | 108 nM | > 50000 nM | Cc1cc(-c2[nH]nc(C(=O)N[C@H]3CC[C@H](NCC4(C)COC4)CC3)c2C(C)C)cn2ncnc12 [Example 149]
6.59 nM | 7.8 nM | 5470 nM | Cc1cc(-c2[nH]nc(C(=O)NC3CCC(N(C)C)CC3)c2C(C)C)cn2ncnc12 (stereo not drawn) [Example 7]
3.33 nM | 11.9 nM | 9310 nM | Cc1cc(-c2[nH]nc(C(=O)NC3CN(CC4(C)COC4)C3)c2C(C)C)cn2ncnc12 [Example 154]
> 3130 nM | > 3130 nM | 4160 nM | COc1cc(-c2[nH]nc(C(=O)N(C)C3CCN(C)CC3)c2C(C)C)cn2ncnc12 [Example 9]
8.29 nM | 1.21 nM | 13400 nM | COCCN(C)C1CCC(NC(=O)c2n[nH]c(-c3cc(C)c4ncnn4c3)c2C(C)C)CC1 (stereo not drawn) [Example 128]
0.76 nM | 1.74 nM | 13500 nM | CCc1c(C(=O)NC2CCN(C(C)C)CC2)n[nH]c1-c1cc(C)c2ncnn2c1 [compound 182]
12.5 nM | 43.4 nM | 793 nM | Cc1cc(-c2[nH]nc(C(=O)N(C)CCCN(C)C)c2C(C)C)cn2ncnc12 [Example 24]
3.74 nM | 1.1 nM | 6670 nM | Cc1cc(-c2[nH]nc(C(=O)N[C@H]3CCCNC3)c2C(C)C)cn2ncnc12 [Example 54]
12.7 nM | 0.96 nM | 4280 nM | Cc1cc(-c2[nH]nc(C(=O)NC3CCN(CC4CC4)CC3)c2C(C)C)cn2ncnc12 [Example 73]
31 nM | 8.95 nM | 14300 nM | Cc1cc(-c2[nH]nc(C(=O)NC3CCN(Cc4ncn(C)n4)CC3)c2C(C)C)cn2ncnc12 [Example 158]
3.13 nM | 1.84 nM | 16000 nM | Cc1cc(-c2[nH]nc(C(=O)NC3CCN(C(C)CS(C)(=O)=O)CC3)c2C(C)C)cn2ncnc12 (stereo not drawn) [Example 174, 4-isopropyl-5-(8-methyl-[1,2,4]triazolo[1,5-a]pyridin-6-yl)-N-(1-(1-(methylsulfonyl)propan-2-yl)piperidin-4-yl)-1H-pyrazole-3-carboxamide]
1.26 nM | 2 nM | 3300 nM | Cc1cc(-c2[nH]nc(C(=O)N[C@H]3CC[C@H](NC(C)C(C)C)CC3)c2C(C)C)cn2ncnc12 (stereo partly drawn) [Example 118]
1.01 nM | 1.27 nM | 4770 nM | Cc1cc(-c2[nH]nc(C(=O)N3CCCN(C)CC3)c2C(C)C)cn2ncnc12 [Example 23]
